Data published in US8097585B2, “Methods of treating inflammation by administration of heme oxygenase-1 and products of heme degradation” (priority 2002, dated 2012).
Structures can show the parent of a compound that is named as a salt.

Assays:
[1] = test system: transplanted islets in diabetic mice; experiment: Syngeneic islet transplantation, minimal mass model; assay type: in vivo, DBA/2 mouse; conditions: 50 μmol/kg twice daily day-1 until day 7; 140 islets; control hyperglycemic >52 days
Description: The ability of exogenously administered biliverdin to protect transplanted islet was evaluated in the minimal mass model. Syngeneic islet transplantation was carried out in the DBA/2 mouse. Islets (140) were transplanted under the kidney capsule of diabetic mice. Test animals were treated with 50 μmol/kg biliverdin twice daily from day-1 until day 7. The controls were treated with vehicle only. Biliverdin treated animals returned to normoglycemia in 7.7±5.5 days; animals in control group remain hyperglycemic (>52 days).

IL-10 = experiment: Real time RT-PCR of graft muscularis after SITx, IL-10; assay type: in vivo, LEW rats; conditions: BV treatment, 4 hours
Description: Small Intestinal Transplantation. Orthotopic small intestinal transplantation (SITx) was performed in syngeneic Lewis rats. SITx with caval drainage was performed using a previously described procedure (Murase et al., in Handbook of Animal Models in Transplantation Research, Cramer et al., Eds. CRC Press, Boca Raton, Fla., pp. 203-213 (1994)). […] The graft was perfused via the aortic segment with 5 ml chilled Ringer's lactate solution, and the intestinal lumen was irrigated with 20 ml of cold saline solution containing 0.5% neomycin-sulfate (Sigma, St. Louis, Mo.). […]
SYBR green real time RT-PCR. The effects of administration of biliverdin on transplant-induced pro-inflammatory and anti-inflammatory gene expression were assessed in muscularis extracts by RT-PCR Biliverdin ([…], i.p.) was administered to both the donor and recipient three hours preoperatively. […] Equal aliquots (5 μg) of total RNA from each sample were quantified by spectrophotometry (wavelength […]) and aliquoted at a concentration of 40 ng/μl. Peak mRNA expression was quantified in duplicate by SYBR Green two-step, real-time RT-PCR. […] Real-time PCR data were plotted as the ΔRn fluorescence signal versus the cycle number. […] Quantification of mRNA expression was normalized to GAPDH and calculated relative to control using the comparative CT method (Schmittgen et al., J. Biochem. Biophys. Methods 46(1-2):69-8, 2000). […]

IL-6 = experiment: Serum IL-6 (ELISA), SITx with preserved intestine; assay type: in vivo, LEW rats
Description: Detection of Serum Mediators. Serum samples from the recipients transplanted with preserved intestine were taken at 3 and 12 hours after reperfusion and stored at […] until evaluation. Serum IL-6 was determined using a rat enzyme-linked immunoassay (ELISA) kits as described by the manufacturer (R & D Systems, Inc., Cambridge, Mass.). To monitor the production of nitric oxide, the stable end products of NO metabolism, serum nitrite/nitrate levels, were measured 12 hours after engraftment using a commercially available test kit (Cayman, Ann Arbor, Mich.). In this assay system, nitrate is reduced to nitrite using nitrate reductase, and the nitrite concentration of the sample is subsequently measured using the Griess reaction.

HO-1 = HO-1 protein expression in heart and spleen after CoPPIX (Western blot); assay type: in vivo, DBA/2 mice; conditions: CoPPIX 5 mg/kg i.p.
Description: Protein extraction and Western blot. DBA/2 mice were injected i.p. with CoPPIX at a dose of 5 mg/kg. Non-treated animals served as naïve controls. One, 2, 4, and 7 days following treatment, the heart and the spleen were excised from the animals, and samples were snap-frozen in liquid nitrogen. Protein extracts were prepared from the obtained tissues, electrophoresed under denaturing conditions (10% polyacrylamide gels) and transferred onto polyvinyldifluoridine membranes (Immobilon™ P, Millipore, Bedford, Mass.). HO-1 was detected using the rabbit anti-human HO-1 polyclonal antibody (Stress Gen Biotechnologies Corp., Victoria, Canada); α-actin was detected using the goat anti-mouse α-actin mAb (1A4, Sigma-Aldrich Corporation). Primary antibodies were detected using horseradish peroxidase conjugated donkey anti-rabbit or goat anti-mouse IgG secondary antibodies (Pierce, Rockford, Ill.). Protein was visualized using the Enhanced Chemi Luminescence (ECL™) Assay kit (Amersham Life Science Inc., Arlington Heights, Ill.), according to the manufacturer's instructions, and stored in the form of photo radiographs (Biomax™ MS, Eastman Kodak, Rochester, N.Y.). The amount of HO-1 expression was normalized with α-actin expression, and was quantified by using the ImageQuant™ software (Molecular Dynamics, Sunny Vale, Calif.).

Structure (SMILES)	time to return to normoglycemia [1] [days]	upregulation of IL-10 mRNA caused by transplantation (IL-10)	serum IL-6 protein concentration (IL-6; 3 hours after engraftment, untreated transplant 5131.4±3169.1) [pg/mL]	serum IL-6 concentrations (IL-6; BV treated controls (no transplant))	HO-1 protein expression in the heart and spleen (HO-1)	time of maximal HO-1 expression after injection (HO-1)
C=CC1=C(C)/C(=C/C2=NC(=C\c3[nH]c(/C=C4\NC(=O)C(C)=C4C=C)c(C)c3CCC(=O)O)/C(CCC(=O)O)=C2C)NC1=O [biliverdin, biliverdin dihydrochloride]	7.7 ± 5.5	did not significantly change	1652 ± 306.9	low	–	–
C=CC1=C(C)c2cc3[n-]c(cc4nc(cc5[n-]c(cc1n2)c(C)c5CCC(=O)[O-])C(CCC(=O)[O-])=C4C)c(C)c3C=C.[Co+2].[H+].[H+] [CoPP, Cobalt protoporphyrin]	–	–	–	–	up-regulated	one
